biological target: T1, recombinant murine Aurora A enzyme (Mus musculus, UniProt P97477); assay: Aurora A DELFIA Kinase Assay; assay type: biochemical; conditions: mouse Aurora A, 250 μM ATP; threshold less than or equal to 100 nM; read-out: IC50
T1 construct: hexahistidine (His6) (N); made in house; host or cells: insect cells, baculovirus (Bac-to-Bac, Invitrogen)
T1 sequence (P97477 whole entry): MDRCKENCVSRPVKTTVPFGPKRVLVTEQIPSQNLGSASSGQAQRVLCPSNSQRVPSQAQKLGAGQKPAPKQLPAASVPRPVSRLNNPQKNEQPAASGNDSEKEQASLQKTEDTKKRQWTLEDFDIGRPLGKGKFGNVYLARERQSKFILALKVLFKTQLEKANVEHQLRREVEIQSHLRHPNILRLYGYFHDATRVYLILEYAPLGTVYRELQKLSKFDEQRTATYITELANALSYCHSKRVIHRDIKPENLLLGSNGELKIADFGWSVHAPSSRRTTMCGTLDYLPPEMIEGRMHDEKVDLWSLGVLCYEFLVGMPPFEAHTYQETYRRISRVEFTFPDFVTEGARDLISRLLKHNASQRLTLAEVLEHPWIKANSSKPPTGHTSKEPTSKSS

Structure (SMILES)	IC50 [nM]
COc1cccc(Nc2ncc3c(n2)-c2ccc(C(=O)O)cc2C(c2ccccc2F)=NC3)c1 [Compound I-256, 7-(2-fluorophenyl)-2-[(3-methoxyphenyl)amino]-5H-pyrimido[5,4-d][2]benzazepine-9-carboxylic acid]	≤ 100
CN(C)CC(=O)Nc1ccc(Nc2ncc3c(n2)-c2ccc(Cl)cc2C(c2c(F)cccc2F)=NC3)cc1 [Compound I-307, N-(4-{[9-chloro-7-(2,6-difluorophenyl)-5H-pyrimido[5,4-d][2]benzazepin-2-yl]amino}phenyl)-2-(dimethylamino)acetamide]	≤ 100
C[C@@H]1CNCCN1C(=O)c1ccc(Nc2ncc3c(n2)-c2ccc(Cl)cc2C(c2c(F)cccc2F)=NC3)cc1 [Compound I-366, 9-chloro-7-(2,6-difluorophenyl)-N-(4-{[(2R)-2-methylpiperazin-1-yl]carbonyl}phenyl)-5H-pyrimido[5,4-d][2]benzazepin-2-amine]	≤ 100
O=C(O)c1ccc(Nc2ncc3c(n2)-c2ccc(Cl)cc2C(c2c(F)cccc2F)=NC3)cc1 [Compound I-135, 4-[9-Chloro-7-(2,6-difluoro-phenyl)-5H-benzo[c]pyrimido[4,5-e]azepin-2-ylamino]-benzoic acid]	≤ 100
CC1CN(C(=O)c2coc(Nc3ncc4c(n3)-c3ccc(Cl)cc3C(c3c(F)cccc3F)=NC4)n2)CC(C)N1 (stereo not drawn) [Compound I-374, 9-chloro-7-(2,6-difluorophenyl)-N-[4-[(3,5-dimethylpiperazin-1-yl)carbonyl]-1,3-oxazol-2-yl]-5H-pyrimido[5,4-d][2]benzazepin-2-amine]	≤ 100
Cc1ccc2c(c1)C(c1ccccc1F)=NCc1cnc(Nc3ccc(C(=O)O)cc3)nc1-2 [Compound I-58, 4-[7-(2-Fluoro-phenyl)-9-methyl-5H-benzo[c]pyrimido[4,5-e]azepin-2-ylamino]-benzoic acid]	≤ 100
CNC1CN(C(=O)c2ccc(Nc3ncc4c(n3)-c3ccc(Cl)cc3C(c3c(F)cccc3OC)=NC4)cc2)C1 [Compound I-235, 9-chloro-7-(2-fluoro-6-methoxyphenyl)-N-(4-{[3-(methylamino)azetidin-1-yl]carbonyl}phenyl)-5H-pyrimido[5,4-d][2]benzazepin-2-amine]	≤ 100
NCC#Cc1cccc(Nc2ncc3c(n2)-c2ccc(Cl)cc2C(c2c(F)cccc2F)=NC3)c1 [Compound I-338, N-[3-(3-aminoprop-1-yn-1-yl)phenyl]-9-chloro-7-(2,6-difluorophenyl)-5H-pyrimido[5,4-d][2]benzazepin-2-amine]	≤ 100
NCC#Cc1ccc2c(c1)C(c1c(F)cccc1F)=NCc1cnc(Nc3ccc(C(=O)O)cc3)nc1-2 [Compound I-272, 4-{[9-(3-aminoprop-1-yn-1-yl)-7-(2,6-difluorophenyl)-5H-pyrimido[5,4-d][2]benzazepin-2-yl]amino}benzoic acid]	≤ 100
O=C(O)c1ccc(Nc2ncc3c(n2)-c2ccc(Cl)cc2C(c2ccccc2Cl)=NC3)cc1 [Compound I-53, 4-[9-Chloro-7-(2-chloro-phenyl)-5H-benzo[c]pyrimido[4,5-e]azepin-2-ylamino]-benzoic acid]	≤ 100
CN1CCN(C(=O)Cc2cccc(Nc3ncc4c(n3)-c3ccc(Cl)cc3C(c3ccccc3F)=NC4)c2)CC1 [Compound I-15, 2-{3-[9-Chloro-7-(2-fluoro-phenyl)-5H-benzo[c]pyrimido[4,5-e]azepin-2-ylamino]-phenyl}-1-(4-methyl-piperazin-1-yl)-ethanone]	≤ 100
CNC1CCN(C(=O)c2ccc(Nc3ncc4c(n3)-c3ccc(Cl)cc3C(c3ccccn3)=NC4)cc2)CC1 [Compound I-316, 9-chloro-N-(4-{[4-(methylamino)piperidin-1-yl]carbonyl}phenyl)-7-pyridin-2-yl-5H-pyrimido[5,4-d][2]benzazepin-2-amine]	≤ 100
CN(C)C1CCN(C(=O)c2ccc(Nc3ncc4c(n3)-c3ccc(Cl)cc3C(c3ccccc3F)=NC4)cc2)CC1 [Compound I-18, {4-[9-Chloro-7-(2-fluoro-phenyl)-5H-benzo[c]pyrimido[4,5-e]azepin-2-ylamino]-phenyl}-(4-dimethylamino-piperidin-1-yl)-methanone]	≤ 100
COC(=O)C1(N)CCN(C(=O)c2ccc(Nc3ncc4c(n3)-c3ccc(Cl)cc3C(c3c(F)cccc3F)=NC4)cc2)CC1 [Compound I-294, methyl 4-amino-1-(4-{[9-chloro-7-(2,6-difluorophenyl)-5H-pyrimido[5,4-d][2]benzazepin-2-yl]amino}benzoyl)piperidine-4-carboxylate]	≤ 100
O=C(O)c1ccc(Nc2ncc3c(n2)-c2ccc(F)cc2C(c2ccccc2F)=NC3)cc1 [Compound I-57, 4-[9-Fluoro-7-(2-fluoro-phenyl)-5H-benzo[c]pyrimido[4,5-e]azepin-2-ylamino]-benzoic acid]	≤ 100
O=C(O)c1ccc(Nc2ncc3c(n2)-c2ccc(Cl)cc2C(c2ccccc2Cl)=NC3)cc1O [Compound I-86, 4-[9-Chloro-7-(2-chloro-phenyl)-5H-benzo[c]pyrimido[4,5-e]azepin-2-ylamino]-2-hydroxy-benzoic acid]	≤ 100
COc1cccc(F)c1C1=NCc2cnc(Nc3cccc(C(=O)N4CC(N(C)C)C4)c3)nc2-c2ccc(Cl)cc21 [Compound I-227, 9-chloro-N-(3-{[3-(dimethylamino)azetidin-1-yl]carbonyl}phenyl)-7-(2-fluoro-6-methoxyphenyl)-5H-pyrimido[5,4-d][2]benzazepin-2-amine]	≤ 100

Structure (SMILES)	IC50 [nM]
CN(C)CC1CN(C(=O)c2ccc(Nc3ncc4c(n3)-c3ccc(Cl)cc3C(c3ccccc3F)=NC4)cc2)C1 [Compound I-193, {4-[9-Chloro-7-(2-fluoro-phenyl)-5H-benzo[c]pyrimido[4,5-e]azepin-2-ylamino]-phenyl}-(3-dimethylaminomethyl-azetidin-1-yl)-methanone]	≤ 100
CN(C)C1CCN(C(=O)c2ccc(Nc3ncc4c(n3)-c3ccc(Cl)cc3C(c3c(F)cccc3F)=NC4)cc2)C1 (stereo not drawn) [Compound I-176, 9-Chloro-7-(2,6-difluorophenyl)-N-(4-{[3-(dimethylamino)pyrrolidin-1-yl]carbonyl}phenyl)-5H-pyrimido[5,4-d][2]benzazepin-2-amine]	≤ 100
O=C(c1ccc(Nc2ncc3c(n2)-c2ccc(Cl)cc2C(c2ccccc2F)=NC3)cc1)N1CCNCC1 [Compound I-8, {4-[9-Chloro-7-(2-fluoro-phenyl)-5H-benzo[c]pyrimido[4,5-e]azepin-2-ylamino]-phenyl}-piperazin-1-yl-methanone]	≤ 100
NC(=O)Cc1cccc(Nc2ncc3c(n2)-c2ccc(Cl)cc2C(c2ccccc2Cl)=NC3)c1 [Compound I-66, 2-{3-[9-Chloro-7-(2-chloro-phenyl)-5H-benzo[c]pyrimido[4,5-e]azepin-2-ylamino]-phenyl}-acetamide]	≤ 100
O=C(O)c1ccc(Nc2ncc3c(n2)-c2ccc(Br)cc2C(c2c(F)cccc2F)=NC3)cc1 [Compound I-274, 4-{[9-bromo-7-(2,6-difluorophenyl)-5H-pyrimido[5,4-d][2]benzazepin-2-yl]amino}benzoic acid]	≤ 100
CC1CN(C(=O)c2ccc(Nc3ncc4c(n3)-c3ccc(Cl)cc3C(c3c(F)cccc3Cl)=NC4)cc2)CC(C)N1 (stereo not drawn) [Compound I-324, 9-chloro-7-(2-chloro-6-fluorophenyl)-N-{4-[(3,5-dimethylpiperazin-1-yl)carbonyl]phenyl}-5H-pyrimido[5,4-d][2]benzazepin-2-amine]	≤ 100
CNC1CCN(C(=O)c2coc(Nc3ncc4c(n3)-c3ccc(Cl)cc3C(c3c(F)cccc3F)=NC4)n2)C1 (stereo not drawn) [Compound I-375, 9-chloro-7-(2,6-difluorophenyl)-N-(4-{[3-(methylamino)pyrrolidin-1-yl]carbonyl}-1,3-oxazol-2-yl)-5H-pyrimido[5,4-d][2]benzazepin-2-amine]	≤ 100
CN(C)CCCNC(=O)c1ccc(Nc2ncc3c(n2)-c2ccc(Cl)cc2C(c2ccccc2F)=NC3)cc1 [Compound I-6, 4-[9-Chloro-7-(2-fluoro-phenyl)-5H-benzo[c]pyrimido[4,5-e]azepin-2-ylamino]-N-(3-dimethylamino-propyl)-benzamide]	≤ 100
NC1CCN(C(=O)c2ccc(Nc3ncc4c(n3)-c3ccc(Cl)cc3C(c3ncccc3F)=NC4)cc2)C1 (stereo not drawn) [Compound I-305]	≤ 100
CN(C)C1CN(C(=O)c2ccc(Nc3ncc4c(n3)-c3ccc(Cl)cc3C(c3ccccc3F)=NC4)cc2)C1 [Compound I-98, {4-[9-Chloro-7-(2-fluoro-phenyl)-5H-benzo[c]pyrimido[4,5-e]azepin-2-ylamino]-phenyl}-(3-dimethylamino-azetidin-1-yl)-methanone]	≤ 100
NC1CCN(C(=O)c2ccc(Nc3ncc4c(n3)-c3ccc(Cl)cc3C(c3c(F)cccc3F)=NC4)cc2Cl)C1 (stereo not drawn) [Compound I-318]	≤ 100
NC1CCN(C(=O)c2ccc(Nc3ncc4c(n3)-c3ccc(Cl)cc3C(c3ccccn3)=NC4)cc2)C1 (stereo not drawn) [Compound I-299, N-{4-[(3-aminopyrrolidin-1-yl)carbonyl]phenyl}-9-chloro-7-pyridin-2-yl-5H-pyrimido[5,4-d][2]benzazepin-2-amine]	≤ 100
NC1CCCN(C(=O)c2ccc(Nc3ncc4c(n3)-c3ccc(Cl)cc3C(c3c(F)cccc3F)=NC4)cc2)C1 (stereo not drawn) [Compound I-221]	≤ 100
CN(C)C1CCN(C(=O)c2ccc(Nc3ncc4c(n3)-c3ccc(Cl)cc3C(c3c(F)cccc3F)=NC4)cc2Cl)CC1 [Compound I-313, 9-chloro-N-(3-chloro-4-{[4-(dimethylamino)piperidin-1-yl]carbonyl}phenyl)-7-(2,6-difluorophenyl)-5H-pyrimido[5,4-d][2]benzazepin-2-amine]	≤ 100
CN(C)CCCc1cccc(Nc2ncc3c(n2)-c2ccc(Cl)cc2C(c2c(F)cccc2F)=NC3)c1 [Compound I-372, 9-chloro-7-(2,6-difluorophenyl)-N-{3-[3-(dimethylamino)propyl]phenyl}-5H-pyrimido[5,4-d][2]benzazepin-2-amine]	≤ 100
COc1ccccc1C1=NCc2cnc(Nc3ccc(C(=O)O)cc3)nc2-c2ccc(Cl)cc21 [Compound I-55, 4-[9-Chloro-7-(2-methoxy-phenyl)-5H-benzo[c]pyrimido[4,5-e]azepin-2-ylamino]-benzoic acid]	≤ 100
